Test results published in ChEMBL document CHEMBL3991601, “The target landscape of clinical kinase drugs” (Science, 2017).
Activity calls are given as the source filed them.

molecular target: T1, Glycine--tRNA ligase (Homo sapiens, UniProt P41250)
T1 sequence (P41250 whole entry): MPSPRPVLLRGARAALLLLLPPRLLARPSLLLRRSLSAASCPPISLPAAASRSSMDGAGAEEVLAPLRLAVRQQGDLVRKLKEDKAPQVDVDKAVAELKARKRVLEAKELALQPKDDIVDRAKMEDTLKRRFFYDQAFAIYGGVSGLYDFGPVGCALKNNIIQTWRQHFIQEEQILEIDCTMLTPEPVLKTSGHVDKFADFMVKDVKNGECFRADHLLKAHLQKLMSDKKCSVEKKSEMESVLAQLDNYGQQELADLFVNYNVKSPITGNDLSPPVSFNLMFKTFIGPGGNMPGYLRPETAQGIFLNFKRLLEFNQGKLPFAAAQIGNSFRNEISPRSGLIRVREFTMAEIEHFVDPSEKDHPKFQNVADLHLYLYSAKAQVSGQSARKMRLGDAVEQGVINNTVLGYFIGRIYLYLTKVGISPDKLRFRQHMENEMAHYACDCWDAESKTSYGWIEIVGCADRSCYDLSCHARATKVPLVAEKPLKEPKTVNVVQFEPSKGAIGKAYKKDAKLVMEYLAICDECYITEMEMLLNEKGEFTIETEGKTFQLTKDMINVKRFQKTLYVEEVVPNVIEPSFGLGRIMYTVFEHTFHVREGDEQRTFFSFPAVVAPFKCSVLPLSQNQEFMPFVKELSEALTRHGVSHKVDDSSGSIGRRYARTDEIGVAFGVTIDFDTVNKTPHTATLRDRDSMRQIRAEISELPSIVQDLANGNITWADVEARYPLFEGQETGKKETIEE
Further: in the data inactive means no Kd found up to 30 µM.

| SMILES | Kd |
| --- | --- |
| Cc1ccc(-n2nc(C(C)(C)C)cc2NC(=O)NCc2cc(F)ccc2Oc2ccc3c(cnn3CCO)c2)cc1 [PEXMETINIB] | > 30 µM (inactive) |
| OCCn1cc(-c2cnc3nnn(Cc4ccc5ncccc5c4)c3n2)cn1 [PF-04217903] | > 30 µM (inactive) |
| CNC(=O)c1ccc(C)c(-n2c(C)cc(OCc3ccc(F)cc3F)c(Br)c2=O)c1 [PH-797804] | > 30 µM (inactive) |
| CNC(=O)c1cc(Oc2ccc(NC(=O)Nc3ccc(Cl)c(C(F)(F)F)c3)c(F)c2)ccn1 [REGORAFENIB] | > 30 µM (inactive) |
| CN(C)C(=O)c1cc2cnc(Nc3ccc(N4CCNCC4)cn3)nc2n1C1CCCC1 [RIBOCICLIB] | > 30 µM (inactive) |
| CNC(=O)CN1CCC(Oc2cc3c(Nc4cccc(Cl)c4F)ncnc3cc2OC)CC1 [SAPITINIB] | > 30 µM (inactive) |
| C[C@@H](c1ccc2nccn2c1)n1nnc2ncc(-c3cnn(C)c3)nc21 [SAVOLITINIB] | > 30 µM (inactive) |
| CN1CCC(CNc2ccc3ncc(-c4cccc(OC(F)(F)F)c4)n3n2)CC1 [SGI-1776] | > 30 µM (inactive) |
| CN1CCC(COc2cnc(-c3cccc(Cn4nc(-c5cccc(C#N)c5)ccc4=O)c3)nc2)CC1 [TEPOTINIB] | > 30 µM (inactive) |

molecular target: Citron Rho-interacting kinase (Homo sapiens, UniProt O14578)
Sequence (O14578 whole entry): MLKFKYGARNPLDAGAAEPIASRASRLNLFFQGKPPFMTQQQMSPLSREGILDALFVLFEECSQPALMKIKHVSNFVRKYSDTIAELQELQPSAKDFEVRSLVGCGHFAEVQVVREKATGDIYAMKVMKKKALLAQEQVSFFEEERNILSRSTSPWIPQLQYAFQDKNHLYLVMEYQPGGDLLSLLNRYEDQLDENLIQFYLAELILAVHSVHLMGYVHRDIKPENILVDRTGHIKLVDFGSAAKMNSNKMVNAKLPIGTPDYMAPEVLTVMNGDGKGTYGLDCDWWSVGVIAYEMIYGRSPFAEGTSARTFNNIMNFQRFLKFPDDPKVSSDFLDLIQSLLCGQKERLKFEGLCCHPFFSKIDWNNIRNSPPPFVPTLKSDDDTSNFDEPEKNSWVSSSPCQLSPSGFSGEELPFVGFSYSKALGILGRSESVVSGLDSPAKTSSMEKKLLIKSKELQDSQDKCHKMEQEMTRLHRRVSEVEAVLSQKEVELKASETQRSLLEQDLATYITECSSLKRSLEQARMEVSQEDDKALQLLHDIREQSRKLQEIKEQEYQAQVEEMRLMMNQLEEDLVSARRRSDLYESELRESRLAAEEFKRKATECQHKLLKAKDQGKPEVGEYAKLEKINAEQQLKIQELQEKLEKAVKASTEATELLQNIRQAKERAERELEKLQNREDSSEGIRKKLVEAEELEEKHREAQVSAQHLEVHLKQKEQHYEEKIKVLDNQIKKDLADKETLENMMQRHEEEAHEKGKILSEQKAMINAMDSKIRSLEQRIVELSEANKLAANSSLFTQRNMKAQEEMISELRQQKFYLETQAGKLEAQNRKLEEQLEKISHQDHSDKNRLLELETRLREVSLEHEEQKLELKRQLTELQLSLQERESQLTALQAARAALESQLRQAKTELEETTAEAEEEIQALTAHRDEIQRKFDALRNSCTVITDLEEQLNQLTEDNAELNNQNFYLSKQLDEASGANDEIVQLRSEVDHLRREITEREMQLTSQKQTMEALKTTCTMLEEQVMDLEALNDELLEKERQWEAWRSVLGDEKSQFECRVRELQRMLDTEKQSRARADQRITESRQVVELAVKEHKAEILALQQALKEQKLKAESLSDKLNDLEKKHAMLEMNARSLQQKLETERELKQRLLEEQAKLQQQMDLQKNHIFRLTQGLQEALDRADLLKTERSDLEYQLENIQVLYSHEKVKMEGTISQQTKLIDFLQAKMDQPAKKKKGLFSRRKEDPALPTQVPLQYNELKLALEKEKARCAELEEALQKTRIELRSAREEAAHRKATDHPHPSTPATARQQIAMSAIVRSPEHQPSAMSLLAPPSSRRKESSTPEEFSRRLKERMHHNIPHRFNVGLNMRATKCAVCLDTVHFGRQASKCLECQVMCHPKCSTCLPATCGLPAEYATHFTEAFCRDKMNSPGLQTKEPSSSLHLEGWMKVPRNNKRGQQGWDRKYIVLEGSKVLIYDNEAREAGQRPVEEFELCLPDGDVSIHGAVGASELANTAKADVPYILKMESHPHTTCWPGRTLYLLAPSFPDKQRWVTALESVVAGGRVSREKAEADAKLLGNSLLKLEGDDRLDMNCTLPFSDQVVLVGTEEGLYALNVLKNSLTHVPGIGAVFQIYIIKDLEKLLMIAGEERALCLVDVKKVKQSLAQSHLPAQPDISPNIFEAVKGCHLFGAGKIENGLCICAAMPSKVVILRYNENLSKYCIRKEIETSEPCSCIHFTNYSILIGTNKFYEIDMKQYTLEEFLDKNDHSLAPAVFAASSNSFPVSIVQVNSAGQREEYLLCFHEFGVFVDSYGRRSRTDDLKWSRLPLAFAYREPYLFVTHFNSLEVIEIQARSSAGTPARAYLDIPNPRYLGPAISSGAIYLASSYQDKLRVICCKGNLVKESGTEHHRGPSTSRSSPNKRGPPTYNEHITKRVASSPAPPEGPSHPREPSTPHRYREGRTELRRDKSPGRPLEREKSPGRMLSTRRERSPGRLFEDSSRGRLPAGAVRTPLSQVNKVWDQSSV

| SMILES | Kd |
| --- | --- |
| Cc1ccc(-n2nc(C(C)(C)C)cc2NC(=O)NCc2cc(F)ccc2Oc2ccc3c(cnn3CCO)c2)cc1 [PEXMETINIB] | > 30 µM (inactive) |
| OCCn1cc(-c2cnc3nnn(Cc4ccc5ncccc5c4)c3n2)cn1 [PF-04217903] | > 30 µM (inactive) |
| CNC(=O)c1ccc(C)c(-n2c(C)cc(OCc3ccc(F)cc3F)c(Br)c2=O)c1 [PH-797804] | > 30 µM (inactive) |
| CNC(=O)c1cc(Oc2ccc(NC(=O)Nc3ccc(Cl)c(C(F)(F)F)c3)c(F)c2)ccn1 [REGORAFENIB] | > 30 µM (inactive) |
| CN(C)C(=O)c1cc2cnc(Nc3ccc(N4CCNCC4)cn3)nc2n1C1CCCC1 [RIBOCICLIB] | > 30 µM (inactive) |
| CNC(=O)CN1CCC(Oc2cc3c(Nc4cccc(Cl)c4F)ncnc3cc2OC)CC1 [SAPITINIB] | > 30 µM (inactive) |
| C[C@@H](c1ccc2nccn2c1)n1nnc2ncc(-c3cnn(C)c3)nc21 [SAVOLITINIB] | > 30 µM (inactive) |
| CN1CCC(CNc2ccc3ncc(-c4cccc(OC(F)(F)F)c4)n3n2)CC1 [SGI-1776] | > 30 µM (inactive) |
| CN1CCC(COc2cnc(-c3cccc(Cn4nc(-c5cccc(C#N)c5)ccc4=O)c3)nc2)CC1 [TEPOTINIB] | > 30 µM (inactive) |

molecular target: T2, Beta-adrenergic receptor kinase 1 (Homo sapiens, UniProt P25098)
T2 sequence (P25098 whole entry): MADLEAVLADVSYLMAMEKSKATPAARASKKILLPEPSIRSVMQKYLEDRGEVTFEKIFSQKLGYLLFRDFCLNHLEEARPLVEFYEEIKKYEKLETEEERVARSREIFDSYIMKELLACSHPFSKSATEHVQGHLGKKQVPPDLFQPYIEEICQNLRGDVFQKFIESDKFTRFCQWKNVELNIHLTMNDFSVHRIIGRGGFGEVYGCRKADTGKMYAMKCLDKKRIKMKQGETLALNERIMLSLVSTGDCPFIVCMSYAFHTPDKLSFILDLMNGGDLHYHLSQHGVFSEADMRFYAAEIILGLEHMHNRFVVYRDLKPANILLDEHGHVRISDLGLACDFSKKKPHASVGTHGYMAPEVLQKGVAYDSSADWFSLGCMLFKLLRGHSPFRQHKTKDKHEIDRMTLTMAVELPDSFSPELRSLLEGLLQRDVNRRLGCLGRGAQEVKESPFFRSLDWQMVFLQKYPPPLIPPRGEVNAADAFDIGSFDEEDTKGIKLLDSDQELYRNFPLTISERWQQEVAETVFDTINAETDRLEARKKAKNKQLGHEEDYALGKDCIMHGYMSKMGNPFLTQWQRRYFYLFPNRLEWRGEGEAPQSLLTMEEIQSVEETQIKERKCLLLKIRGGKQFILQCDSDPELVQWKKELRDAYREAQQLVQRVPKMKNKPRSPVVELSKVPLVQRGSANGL

| SMILES | Kd |
| --- | --- |
| Cc1ccc(-n2nc(C(C)(C)C)cc2NC(=O)NCc2cc(F)ccc2Oc2ccc3c(cnn3CCO)c2)cc1 [PEXMETINIB] | > 30 µM (inactive) |
| OCCn1cc(-c2cnc3nnn(Cc4ccc5ncccc5c4)c3n2)cn1 [PF-04217903] | > 30 µM (inactive) |
| CNC(=O)c1ccc(C)c(-n2c(C)cc(OCc3ccc(F)cc3F)c(Br)c2=O)c1 [PH-797804] | > 30 µM (inactive) |
| CNC(=O)c1cc(Oc2ccc(NC(=O)Nc3ccc(Cl)c(C(F)(F)F)c3)c(F)c2)ccn1 [REGORAFENIB] | > 30 µM (inactive) |
| CN(C)C(=O)c1cc2cnc(Nc3ccc(N4CCNCC4)cn3)nc2n1C1CCCC1 [RIBOCICLIB] | > 30 µM (inactive) |
| CNC(=O)CN1CCC(Oc2cc3c(Nc4cccc(Cl)c4F)ncnc3cc2OC)CC1 [SAPITINIB] | > 30 µM (inactive) |
| C[C@@H](c1ccc2nccn2c1)n1nnc2ncc(-c3cnn(C)c3)nc21 [SAVOLITINIB] | > 30 µM (inactive) |
| CN1CCC(CNc2ccc3ncc(-c4cccc(OC(F)(F)F)c4)n3n2)CC1 [SGI-1776] | > 30 µM (inactive) |
| CN1CCC(COc2cnc(-c3cccc(Cn4nc(-c5cccc(C#N)c5)ccc4=O)c3)nc2)CC1 [TEPOTINIB] | > 30 µM (inactive) |

molecular target: T3, Cytochrome c1, heme protein, mitochondrial (Homo sapiens, UniProt P08574)
T3 sequence (P08574 whole entry): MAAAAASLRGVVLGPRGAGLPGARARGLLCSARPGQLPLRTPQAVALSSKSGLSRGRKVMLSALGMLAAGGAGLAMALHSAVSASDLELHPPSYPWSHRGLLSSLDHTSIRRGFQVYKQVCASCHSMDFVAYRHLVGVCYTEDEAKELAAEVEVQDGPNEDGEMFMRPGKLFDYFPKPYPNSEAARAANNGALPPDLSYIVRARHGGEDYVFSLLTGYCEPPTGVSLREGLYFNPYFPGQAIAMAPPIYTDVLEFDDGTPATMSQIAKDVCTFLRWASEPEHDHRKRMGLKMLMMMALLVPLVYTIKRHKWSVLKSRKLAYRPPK

| SMILES | Kd |
| --- | --- |
| Cc1ccc(-n2nc(C(C)(C)C)cc2NC(=O)NCc2cc(F)ccc2Oc2ccc3c(cnn3CCO)c2)cc1 [PEXMETINIB] | > 30 µM (inactive) |
| OCCn1cc(-c2cnc3nnn(Cc4ccc5ncccc5c4)c3n2)cn1 [PF-04217903] | > 30 µM (inactive) |
| CNC(=O)c1ccc(C)c(-n2c(C)cc(OCc3ccc(F)cc3F)c(Br)c2=O)c1 [PH-797804] | > 30 µM (inactive) |
| CNC(=O)c1cc(Oc2ccc(NC(=O)Nc3ccc(Cl)c(C(F)(F)F)c3)c(F)c2)ccn1 [REGORAFENIB] | > 30 µM (inactive) |
| CN(C)C(=O)c1cc2cnc(Nc3ccc(N4CCNCC4)cn3)nc2n1C1CCCC1 [RIBOCICLIB] | > 30 µM (inactive) |
| CNC(=O)CN1CCC(Oc2cc3c(Nc4cccc(Cl)c4F)ncnc3cc2OC)CC1 [SAPITINIB] | > 30 µM (inactive) |
| C[C@@H](c1ccc2nccn2c1)n1nnc2ncc(-c3cnn(C)c3)nc21 [SAVOLITINIB] | > 30 µM (inactive) |
| CN1CCC(CNc2ccc3ncc(-c4cccc(OC(F)(F)F)c4)n3n2)CC1 [SGI-1776] | > 30 µM (inactive) |
| CN1CCC(COc2cnc(-c3cccc(Cn4nc(-c5cccc(C#N)c5)ccc4=O)c3)nc2)CC1 [TEPOTINIB] | > 30 µM (inactive) |

molecular target: T4, ATP-dependent RNA helicase DDX42 (Homo sapiens, UniProt Q86XP3)
T4 sequence (Q86XP3 whole entry): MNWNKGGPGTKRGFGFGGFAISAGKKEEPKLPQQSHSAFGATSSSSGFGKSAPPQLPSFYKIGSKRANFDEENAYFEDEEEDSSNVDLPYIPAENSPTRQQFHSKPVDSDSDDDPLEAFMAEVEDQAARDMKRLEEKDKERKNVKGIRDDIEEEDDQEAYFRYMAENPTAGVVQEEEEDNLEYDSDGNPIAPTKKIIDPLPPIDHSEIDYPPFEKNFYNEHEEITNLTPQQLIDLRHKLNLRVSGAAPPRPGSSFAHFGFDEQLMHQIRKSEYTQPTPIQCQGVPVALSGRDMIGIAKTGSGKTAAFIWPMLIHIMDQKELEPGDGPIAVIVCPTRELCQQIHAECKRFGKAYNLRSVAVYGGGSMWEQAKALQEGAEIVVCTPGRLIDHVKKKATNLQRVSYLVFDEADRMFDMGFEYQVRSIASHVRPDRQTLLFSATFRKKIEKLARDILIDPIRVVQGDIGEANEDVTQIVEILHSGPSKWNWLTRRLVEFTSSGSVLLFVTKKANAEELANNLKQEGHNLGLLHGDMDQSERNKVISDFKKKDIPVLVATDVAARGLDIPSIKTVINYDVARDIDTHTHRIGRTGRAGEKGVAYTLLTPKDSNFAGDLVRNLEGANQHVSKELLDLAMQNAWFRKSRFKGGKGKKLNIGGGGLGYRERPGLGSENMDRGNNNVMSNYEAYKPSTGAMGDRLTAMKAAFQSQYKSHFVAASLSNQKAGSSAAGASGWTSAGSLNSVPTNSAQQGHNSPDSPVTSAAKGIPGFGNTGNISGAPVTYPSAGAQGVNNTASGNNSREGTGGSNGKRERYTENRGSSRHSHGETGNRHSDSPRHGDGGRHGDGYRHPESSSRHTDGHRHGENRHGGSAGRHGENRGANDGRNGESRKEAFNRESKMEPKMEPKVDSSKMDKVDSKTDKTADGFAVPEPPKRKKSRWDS

| SMILES | Kd |
| --- | --- |
| Cc1ccc(-n2nc(C(C)(C)C)cc2NC(=O)NCc2cc(F)ccc2Oc2ccc3c(cnn3CCO)c2)cc1 [PEXMETINIB] | > 30 µM (inactive) |
| OCCn1cc(-c2cnc3nnn(Cc4ccc5ncccc5c4)c3n2)cn1 [PF-04217903] | > 30 µM (inactive) |
| CNC(=O)c1ccc(C)c(-n2c(C)cc(OCc3ccc(F)cc3F)c(Br)c2=O)c1 [PH-797804] | > 30 µM (inactive) |
| CNC(=O)c1cc(Oc2ccc(NC(=O)Nc3ccc(Cl)c(C(F)(F)F)c3)c(F)c2)ccn1 [REGORAFENIB] | > 30 µM (inactive) |
| CN(C)C(=O)c1cc2cnc(Nc3ccc(N4CCNCC4)cn3)nc2n1C1CCCC1 [RIBOCICLIB] | > 30 µM (inactive) |
| CNC(=O)CN1CCC(Oc2cc3c(Nc4cccc(Cl)c4F)ncnc3cc2OC)CC1 [SAPITINIB] | > 30 µM (inactive) |
| C[C@@H](c1ccc2nccn2c1)n1nnc2ncc(-c3cnn(C)c3)nc21 [SAVOLITINIB] | > 30 µM (inactive) |
| CN1CCC(CNc2ccc3ncc(-c4cccc(OC(F)(F)F)c4)n3n2)CC1 [SGI-1776] | > 30 µM (inactive) |
| CN1CCC(COc2cnc(-c3cccc(Cn4nc(-c5cccc(C#N)c5)ccc4=O)c3)nc2)CC1 [TEPOTINIB] | > 30 µM (inactive) |
